Legend:
Type in all cases: cell-based
KRAS^G12C [1] = target: T1, KRAS^G12C (Homo sapiens, UniProt P01116, G12C); assay: Engagement and degradation of endogenous KRAS^G12C in NCI-H2030 cells (blot quantitation); parameters: MRTX849-VHL bifunctional compounds engage and degrade endogenous KRAS^G12C in NCI-H2030 cells; endogenous in cells; host or cells: NCI-H2030; conditions: dose response (FIG. 2B)
KRAS^G12C [2] = target: T1, KRAS^G12C; assay: KRAS^G12C engagement and degradation by immunoblot in NCI-H2030 cells; parameters: MRTX849-VHL bifunctional compounds engage and degrade endogenous KRAS^G12C in NCI-H2030 cells; endogenous in cells; host or cells: NCI-H2030, NCI-H358, MIA PaCa-2, SW1573, NCI-H23
Experimental: (§1) NCI-H2030 (CRL-5914), MIA PaCa-2 (CRL-1420), NCI-H23 (CRL-5800), NCI-H358 (CRL-5807), and HCT-116 (CCL-247) cells were obtained from ATCC, expanded immediately, and frozen down. Vials were thawed and used within 20 passages. SW1573 cells were a gift from Arvinas and were handled in the same manner. NCI-H2030, NCI-H23, and NCI-H358 were cultured in RPMI (ATCC30-2001) supplemented with 10% FBS (Biological Industries; cat. no. S1480) and 1% Penicillin-Streptomycin (ThermoFisher; cat. no. 15140122). HCT-116 cells were maintained in high glucose DMEM (ThermoFisher; cat. no. 11965084) supplemented as above. MIA PaCa-2 cells were cultured in high glucose DMEM supplemented with 10% FBS, 2.5% horse serum (ThermoFisher; cat. no. 26050-088; lot 2109875), and 1% Penicillin-Streptomycin. SW1573 cells were maintained in DMEM/F12 Nutrient Mix with GlutaMAX supplement (ThermoFisher; cat. no. 10565018) with 10% FBS and 1% Penicillin-Streptomycin added. DPBS (ThermoFisher; cat. no. 14190250) was used to wash cells and 0.25% Trypsin-EDTA (ThermoFisher; cat. no. […]) was used to detach cells for passaging. […] The VHL ligand was generously provided by Arvinas.
(§2) Between 2.5×10^5 and 6.0×10^5 cells were seeded into 6-well plates (Corning; cat. no. 353046). The next day, media was removed and cells were treated with 2.5 μM LC-2 for 1, 2, 4, 8, 12, or 24 hours. […] For 24-hour time course experiments, cells were treated at the indicated times and concurrently lysed in RIPA buffer supplemented as described previously. For longer time course experiments and time courses in which cells were treated with LC-2 or LC-2 Epimer, cells were concurrently treated with either compound, then lysed by scraping in RIPA buffer at the indicated time points.
(§3) Between 2.5×10^5 and 5.0×10^5 cells were seeded into 6-well plates. The next day cells were pretreated with DMSO, 500 μM or 1 mM VHL ligand, 1 μM epoxomicin, 1 μM […], or 100 nM […] bafilomycin A1 for 1 hour. Media was then removed and cells were treated with DMSO, 2.5 μM LC-2 plus DMSO, 2.5 μM LC-2 Epimer plus DMSO, or co-treated with 2.5 μM LC-2 and the corresponding competitor/inhibitor. H2030 cells were treated for 4 hours and H23 cells were treated for 24 hours, after which cells were lysed by scraping in RIPA buffer supplemented as described previously.
(§4) Cell lysates were clarified at 21000×g for 15 mins at 4° C. Protein levels were quantified using a 50:1 mixture of bicinchoninic acid solution (Millipore Sigma; cat. no. B9643) and 4% (w/v) copper(II) sulfate solution (Millipore Sigma; cat. no. C2284) incubated at 37° C. for 30 mins. Absorbance values at 560 nm were read on an EnVision 2101 Multilabel Reader (PerkinElmer). Proteins were separated using 26 well Criterion TGX precast 4-15% (cat. no. 5671085) or 8-16% (cat. no. 5671105) gradient midi gels. After separation, proteins were transferred to nitrocellulose or PVDF membranes at 76 V for 2 hours at 4° C. Blots were then blocked in 5% milk in tris-buffered saline with Tween-20 (TBST; 20 mM Tris, 150 mM NaCl, 0.02% Tween-20). After blocking, blots were incubated in primary antibody overnight (12-18 hours) at 4° C. or for 2 hours at room temperature with mild agitation at the manufacturer's indicated dilution in either 5% milk or 5% BSA in TBST. Blots were then washed thrice with TBST for 5 mins at room temperature. After washing, blots were incubated with 1:5,000-1:10,000 of donkey anti-rabbit (GE Life Sciences; NA934) or sheep anti-mouse (GE Life Sciences; NA931) secondary antibody diluted in 5% milk for 1 hour at room temperature with mild agitation. Blots were again washed thrice with TBST for 5 mins. Chemiluminescent signal was generated using Amersham ECL Prime Western Blotting Detection Reagant (GE Life Sciences; cat. no. RPN2232) or SuperSignal West Femto Maximum Sensitivity Substrate (ThermoFisher; cat. no. 34095). Images were obtained using a Bio-Rad ChemiDoc Imager.

KRAS^G12C [3] = target: T1, KRAS^G12C; assay: KRAS^G12C degradation by immunoblot in NCI-H23 cells; parameters: MRTX849-VHL bifunctional compounds engage and degrade endogenous KRAS^G12C in NCI-H2030 cells; endogenous in cells; host or cells: NCI-H2030, NCI-H358, MIA PaCa-2, SW1573, NCI-H23; conditions: FIG. 9B
Experimental: as §1, §2, §3, §4

## C=C(F)C(=O)N1CCN(c2nc(OC[C@@H]3CCCN3CCC(=O)NCCOCCOCCC(=O)N[C@H](C(=O)N3C[C@H](O)C[C@H]3C(=O)NCc3ccc(-c4scnc4C)cc3)C(C)(C)C)nc3c2CCN(c2cccc4cccc(Cl)c24)C3)C[C@@H]1CC#N [LC-1, (2S,4R)-1-((S)-2-(tert-butyl)-16-((S)-2-(((7-(8-chloronaphthalen-1-yl)-4-((S)-3-(cyanomethyl)-4-(2-fluoroacryloyl)piperazin-1-yl)-5,6,7,8-tetrahydropyrido[3,4-d]pyrimidin-2-yl)oxy)methyl)pyrrolidin-1-yl)-4,14-dioxo-7,10-dioxa-3,13-diazahexadecanoyl)-4-hydroxy-N-(4-(4-methylthiazol-5-yl)benzyl)pyrrolidine-2-carboxamide]
KRAS^G12C [1]
  engagement of KRAS^G12C: engages KRAS^G12C in a dose dependent manner
KRAS^G12C [2]; 10 μM, compound screen (FIG. 2C)
  effect on KRAS protein levels: increased KRAS protein levels
KRAS^G12C [2]; NCI-H2030, 10 μM, FIG. 9A
  KRAS, two-way ANOVA significance vs DMSO: * (* p < 0.05)
KRAS^G12C [2]; NCI-H2030, 24 hours, at 1, 2.5, 10, and 25 μM
  KRAS engagement (band shift): clear band shift
KRAS^G12C [2]; NCI-H2030, 24 hours, increasing concentrations
  reduction in KRAS levels: small, non-significant reduction
KRAS^G12C [3]; NCI-H23, 0.1 μM
  KRAS, two-way ANOVA significance vs DMSO: N.S.
KRAS^G12C [3]; NCI-H23, 10 μM
  KRAS, two-way ANOVA significance vs DMSO: N.S.

From patent US20220370416A1, “COMPOUNDS AND METHODS FOR TARGETED DEGRADATION OF KRAS” (Arvinas Operations, Inc., priority 2020, published 2022)
